From US5332726A, “Antithrombotic peptides and pseudopeptides” (Rhone-Poulenc Rorer Pharmaceuticals Inc., priority 1992, dated 1994)
pIC50: −log10 of the molar value. Like-named read-outs stand apart in the source and are kept apart here. Non-standard residues stand in square brackets, D forms with d. Residues, ends and D or L forms follow the SMILES beside them. NMeV = CN[C@H](C(=O)O)C(C)C; Orn = NCCC[C@H](N)C(=O)O; Aun = NCCCCCCCCCCC(=O)O; Ava = NCCCCC(=O)O; Sar = CNCC(=O)O

What was measured:
[1] = biological target: thrombin-stimulated platelets (Homo sapiens, UniProt P05106+P08514); assay: Fibrinogen-Binding Assay (125I-fibrinogen binding to platelets)
Chain of thrombin-stimulated platelets (P08514 32-1039): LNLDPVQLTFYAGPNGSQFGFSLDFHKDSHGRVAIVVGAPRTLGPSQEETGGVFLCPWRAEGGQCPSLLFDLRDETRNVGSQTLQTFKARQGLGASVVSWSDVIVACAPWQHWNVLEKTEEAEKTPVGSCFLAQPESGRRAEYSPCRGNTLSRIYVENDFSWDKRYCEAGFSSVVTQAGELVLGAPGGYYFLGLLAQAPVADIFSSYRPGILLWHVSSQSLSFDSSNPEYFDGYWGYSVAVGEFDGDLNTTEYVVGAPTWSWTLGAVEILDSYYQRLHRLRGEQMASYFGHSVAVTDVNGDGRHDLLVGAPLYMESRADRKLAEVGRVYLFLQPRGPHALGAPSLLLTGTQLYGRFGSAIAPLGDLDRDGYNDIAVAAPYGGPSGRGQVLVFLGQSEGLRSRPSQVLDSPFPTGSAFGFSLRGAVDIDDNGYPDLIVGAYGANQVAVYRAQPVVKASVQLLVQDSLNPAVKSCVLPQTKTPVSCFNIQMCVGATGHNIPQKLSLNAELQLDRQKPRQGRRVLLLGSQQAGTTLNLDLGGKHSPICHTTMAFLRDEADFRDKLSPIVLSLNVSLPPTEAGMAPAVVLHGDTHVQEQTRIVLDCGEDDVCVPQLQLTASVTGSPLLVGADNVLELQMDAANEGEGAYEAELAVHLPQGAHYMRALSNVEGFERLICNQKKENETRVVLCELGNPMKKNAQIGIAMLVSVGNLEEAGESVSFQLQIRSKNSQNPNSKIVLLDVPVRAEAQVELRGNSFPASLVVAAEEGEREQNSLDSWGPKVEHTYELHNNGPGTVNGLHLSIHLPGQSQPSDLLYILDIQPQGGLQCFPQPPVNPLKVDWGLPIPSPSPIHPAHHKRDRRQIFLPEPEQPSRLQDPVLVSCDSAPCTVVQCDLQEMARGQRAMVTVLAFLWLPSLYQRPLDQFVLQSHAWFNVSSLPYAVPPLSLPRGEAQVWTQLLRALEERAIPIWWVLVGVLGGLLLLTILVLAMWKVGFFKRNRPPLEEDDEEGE
Chain of thrombin-stimulated platelets (P05106 27-788): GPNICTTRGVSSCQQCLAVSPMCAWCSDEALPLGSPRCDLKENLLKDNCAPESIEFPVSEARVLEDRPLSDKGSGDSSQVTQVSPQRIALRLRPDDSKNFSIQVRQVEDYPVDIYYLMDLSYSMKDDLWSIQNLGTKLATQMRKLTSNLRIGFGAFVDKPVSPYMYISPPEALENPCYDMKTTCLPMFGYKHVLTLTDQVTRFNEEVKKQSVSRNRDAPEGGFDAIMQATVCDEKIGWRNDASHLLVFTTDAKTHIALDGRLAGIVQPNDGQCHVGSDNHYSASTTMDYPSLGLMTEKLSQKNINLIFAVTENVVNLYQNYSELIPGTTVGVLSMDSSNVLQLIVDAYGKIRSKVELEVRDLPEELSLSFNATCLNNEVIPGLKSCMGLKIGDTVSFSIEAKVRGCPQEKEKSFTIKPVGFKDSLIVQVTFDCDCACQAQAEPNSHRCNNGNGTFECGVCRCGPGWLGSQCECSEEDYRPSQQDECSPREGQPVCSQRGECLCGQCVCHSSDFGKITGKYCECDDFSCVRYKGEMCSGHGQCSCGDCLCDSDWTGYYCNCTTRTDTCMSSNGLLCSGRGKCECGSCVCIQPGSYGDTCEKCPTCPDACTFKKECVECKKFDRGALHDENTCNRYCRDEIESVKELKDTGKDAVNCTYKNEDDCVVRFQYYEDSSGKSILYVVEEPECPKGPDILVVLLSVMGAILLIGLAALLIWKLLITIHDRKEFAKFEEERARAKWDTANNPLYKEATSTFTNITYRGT

[2] = biological target: fixed activated platelets (Homo sapiens, UniProt P05106+P08514); assay: Platelet Aggregation Assay (fibrinogen-mediated aggregation of fixed-activated platelets); format: cell-based
Chain of fixed activated platelets (P08514 32-1039): as the sequence (P08514 32-1039) above
Chain of fixed activated platelets (P05106 27-788): as the sequence (P05106 27-788) above
In short: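 Activated platelets fixed with 0.50% paraformaldehyde for 30 min at room temperature. They were then pre-incubated 1 min with test compound before aggregation was triggered by human fibrinogen at 250 μg/ml final. Aggregation recorded on an aggregometer.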

[3] = system: platelet aggregation; conditions: cited from earlier work
[4] = 125I-fibrinogen 0.176 μmol/liter, thrombin-stimulated platelets; read-out: Inhibition of 125I-Fibrinogen Binding to Platelets IC50
[5] = fixed activated platelets, human fibrinogen 250 μg/ml; read-out: Inhibition of Fibrinogen Mediated Platelet Aggregation IC50
[6] = read-out: Inhibition of Fibrinogen Mediated Platelet Aggregation % inhibition at 25 μM
[7] = read-out: Inhibition of Fibrinogen Mediated Platelet Aggregation % inhibition at 100 μM
[8] = read-out: Inhibition of 125I-Fibrinogen Binding to Platelets: Inhibited <50% at 50 μg/ml

Compound	pIC50 [1, 4]	pIC50 [2, 5]	inhibition at 25 µM [2, 6]	inhibition at 100 µM [2, 7]	other results
CC(C)C[C@H](NC(=O)[C@H](CC(=O)O)NC(=O)CCCCCCCCNC(=N)N)C(=O)O [9-guanidinononanoyl-L-aspartyl-L-leucine]	6.40	6.23	95%	–	–
CC(C)[C@H](NC(=O)[C@H](CC(=O)O)NC(=O)CCCCCCCCNC(=N)N)C(=O)O [9-guanidinononanoyl-L-aspartyl-L-valine]	6.70	5.77	96%	–	–
CC(C)[C@H](NC(=O)[C@H](CC(=O)O)NC(=O)CCCCCCCCCn1ccnc1)C(=O)O [10-(Imidazol-1-yl)decanoyl-L-aspartyl-L-valine]	4.70	< 4.60	45%	–	–
CC(C)[C@H](NC(=O)[C@H](CC(=O)O)NC(=O)C=CCCCCCCCNC(=N)N)C(=O)O [10-Guanidinodec-2-enoyl-L-aspartyl-L-valine]	4.92	5.06	77%	–	–
CC(C)[C@H](NC(=O)[C@H](CC(=O)O)NC(=O)CCCCCCCCCNC(=N)N)C(=O)O [10-Guanidinodecanoyl-L-aspartyl-L-valine]	5.60	4.99	77%	–	–
CC(C)[C@H](NC(=O)[C@H](CC(=O)O)NC(=O)CNC(=O)[C@@H](N)CCCN)C(=O)O [L-ornithylglycyl-L-aspartyl-L-valine] (H-[Orn]GDV-OH)	–	4.82	–	80%	inhibition at 50 µg/mL [1, 8]: < 50%
N=C(N)NCCCCC(=O)NCC(=O)N[C@@H](CC(=O)O)C(=O)NCCc1ccccc1 [N-(5-guanidinopentanoyl)glycyl-L-aspartylphenethylamide]	4.70	5.68	–	86%	–
CC(C)[C@H](NC(=O)[C@H](CC(=O)O)NC(=O)Cn1nnnc1CCCCCNC(=N)N)C(=O)O [[5-(5'-Guanidinopentyl)Tetrazol-1-yl]-Acetyl-L-Aspartyl-L-Valine]	–	–	40%	–	pIC50 ([1]; read-out: Inhibition of 125I-Fibrinogen Binding to Platelets IC50; 125I-fibrinogen 0.176 μmol/liter, thrombin-stimulated platelets): 5.66; pIC50 ([2]; read-out: Inhibition of Fibrinogen Mediated Platelet Aggregation IC50; fixed activated platelets, human fibrinogen 250 μg/ml): < 4.60
arg-gly-asp-ser	–	–	–	–	inhibiting thrombin-induced platelet aggregation [3]: capable of inhibiting thrombin-induced platelet aggregation
gly-arg-gly-asp-ser	–	–	–	–	inhibiting thrombin-induced platelet aggregation [3]: capable of inhibiting thrombin-induced platelet aggregation

Second part, led by results:

pIC50 [1, 4]	pIC50 [2, 5]	inhibition at 25 µM [2, 6]	inhibition at 100 µM [2, 7]	Compound	other results
6.24	5.77	0.98%	–	CC(C)[C@H](NC(=O)[C@H](CC(=O)O)NC(=O)CCCCCCCCCCN)C(=O)O [11-Aminoundecanoyl-L-aspartyl-L-valine] (H-[Aun]-Asp-Val-OH)	–
4.77	–	36%	–	CC(C)[C@H](NC(=O)[C@H](CC(=O)O)NC(=O)CCCCCCCCCCNC(=N)N)C(=O)O [11-guanidinoundecanoyl-L-aspartyl-L-valine]	–
5.15	–	36%	–	CC(C)[C@H](NC(=O)[C@H](CC(=O)O)NC(=O)CCCCCCCCCCCNC(=N)N)C(=O)O [12-Guanidinododecanoyl-L-aspartyl-L-valine]	–
4.22	< 4.60	8%	–	CC(C)[C@H](NC(=O)[C@H](CC(=O)O)NC(=O)CNC(=O)[C@@H](N)CCCCN)C(=O)O [L-Lysylglycyl-L-aspartyl-L-valine] (H-KGDV-OH)	–
< 3.70	< 4.00	–	10%	CC(C)[C@H](NC(=O)CNC(=O)CNC(=O)[C@@H](N)CCCNC(=N)N)C(=O)O [L-arginyl glycyl glycyl-L-valine] (H-RGGV-OH)	–
< 3.70	4.00	–	49%	CC(C)[C@H](NC(=O)[C@H](CC(=O)O)NC(=O)[C@@H](N)CCCNC(=N)N)C(=O)O [L-arginyl-L-aspartyl-L-valine] (H-Arg-Asp-Val-OH)	–
–	< 4.00	–	17.5%	CC(C)[C@H](NC(=O)[C@H](C)NC(=O)CNC(=O)[C@@H](N)CCCNC(=N)N)C(=O)O [L-arginylglycyl-L-alanyl-L-valine] (H-RGAV-OH)	inhibition at 50 µg/mL [1, 8]: < 50%
4.60	4.85	–	96%	N=C(N)NCCC[C@H](N)C(=O)NCC(=O)N[C@@H](CC(=O)O)C(=O)OCc1ccccc1 [L-arginylglycyl-L-aspartic acid α-benzyl ester]	–
–	3.80	–	30%	CC(C)[C@@H](C(=O)O)N(C)C(=O)[C@H](CC(=O)O)NC(=O)CNC(=O)[C@@H](N)CCCNC(=N)N [L-arginylglycyl-L-aspartyl-L-(N-methyl)-valine] (H-RGD[NMeV]-OH)	inhibition at 50 µg/mL [1, 8]: < 50%
4.58	5.44	–	89%	CC(C)CNC(=O)[C@H](CC(=O)O)NC(=O)CNC(=O)[C@@H](N)CCCNC(=N)N [L-arginylglycyl-L-aspartyl-α-isobutylamide]	–
4.85	4.85	–	92%	CC(C)[C@H](NC(=O)[C@H](CC(=O)O)NC(=O)CN(C)C(=O)[C@@H](N)CCCNC(=N)N)C(=O)O [L-arginylsarcosyl-L-aspartyl-L-valine] (H-R[Sar]DV-OH)	–
4.16	< 4.19	–	67%	CC(C)[C@H](NC(=O)[C@H](CC(=O)O)NC(=O)CNC(=O)CCCCN)C(=O)O [N-(5-Aminopentanoyl) glycyl-L-aspartyl-L-valine] (H-[Ava]GDV-OH)	–
6.15	5.64	–	92%	CC(C)[C@H](NC(=O)[C@H](CC(=O)O)NC(=O)CNC(=O)CCCCNC(=N)N)C(=O)O [N-(5-guanidinopentanoyl)glycyl-L-aspartyl-L-valine]	–
4.27	< 4.60	13%	–	CC(C)C[C@@H](CCC(=O)O)NC(=O)[C@H](CC(=O)O)NC(=O)CCCCCCCCNC(=N)N [N-(9-guanidinononanoyl-L-aspartyl)-(R)-4-amino-4-isobutylbutyric acid]	–
